The values that follow come from patent US10125157B2, “Derivatives of oxazaphosphorines that are pre-activated, use and method of preparation” (priority 2010, dated 2018).

One data set has as its system several cell lines. The data set can be described thus: In vitro cytotoxicity over the panel of cell lines (MTS). The following applies: all cell lines tested, concentrations between 0.1 and 100 μM. The text has this: Cytotoxicity of SQ-IFO and SQ-thio-IFO nanoparticles was studied in several cell lines:
• A549: human alveolar basal epithelial cell adenocarcinoma • MCF-7: human breast carcinoma • MCF-7 MDR: multidrug resistant human breast carcinoma • B16F10: mouse melanoma • KB 3.1: human epidermoid carcinoma • M109: mouse lung tumor cells • MiaPaCa-2: human pancreatic carcinoma • UW-479: human pediatric glioma • IGR OV1: human ovarian cancer • SK-N-MC: neuroblastoma, reclassified as Ewing (expression of EWS/Flip-1 oncogene)
The cell lines were maintained in DMEM or RPMI medium supplemented with 10% fetal calf serum and 1% antibiotics (100 U/mL penicillin and 100 μg/mL streptomycin) in an incubator at 37° C. in a humid 5% carbon dioxide atmosphere.
The cells were seeded in 96-well plates (TPP). Seeding was optimized for each line for an incubation time of 72 hours.
A549, MCF-7, B16F10, M109, MiaPaCa-2 cells were seeded at 5·10^3 cells/well. […] cells were seeded at 2·10^3 cells/well, IGR-OV1 cells at 10^4 cells/well and UW479 and SK-N-MC cells at 5·10^4 cells/well.
The compounds SQ-IFO and SQ-thio-IFO were synthesized according to the protocol described above. For each compound, an aqueous suspension of nanoparticles was prepared using the technique described by Fessi, Int. J. Pharm, 1989, 55, R1-R4.
For each compound, different concentrations between 0.1 and 100 μM were tested by serial dilution of a 2 mg/mL stock solution for SQ-IFO and a 10 mg/mL stock solution for SQ-thio-IFO in culture medium.
After 72 hours of incubation, cell viability was determined by observing the reduction of MTS reagent to formazan (CellTiter 96 AQueous One Solution kit, Promega). 20 μL of a 5 mg/mL solution of MTS in PBS were added per well. The incubation time of the MTS was optimized for each cell line; the absorbance at 490 nm was then read using a plate reader (EL808, Biotek).
The results are expressed as percentage of untreated cells. The data were treated with Prism 4 software (Graph Pad Software, San Diego). IC50 values were thus calculated for each line. Ifosfamide and squalenol were used as controls.

Another data set relates to M109. The data set can be described thus: In vitro cytotoxicity, MTS cell viability test, 72 h. The class given is cell-based, mouse. The following applies: for cytotoxic activity (in words): M109 cell line; for pIC50: Mus musculus. The protocol:
(§1) The cells were seeded in 96-well plates (TPP).
(§2) J. Pharm, 1989, 55, R1-R4.
(§3) The results are expressed as percentage of untreated cells. […] IC50 values were thus calculated for each line. Ifosfamide and squalenol were used as controls.
(Tetrazolium assays rely on reduction of a dye to a coloured formazan, in cell work by metabolically active cells.)

The subject of a further data set is MCF-7 MDR. The description is as above. The class given is cell-based. As to conditions: Homo sapiens. The method, then:
as §1, §2, §3

The next data set has as its system KB 3.1. The description is as above. The class given is cell-based. The following applies: Homo sapiens. The protocol:
as §1, §2, §3

The subject of the next data set is MCF-7. Described as above. The data set is classed as cell-based. As to conditions: Homo sapiens. The protocol:
as §1, §2, §3

In another data set the test system is A549. Described as above. The class given is cell-based. As to conditions: Homo sapiens. The method, then:
as §1, §2, §3

The next data set relates to B16F10. Described as above. The class given is cell-based. The following applies: Mus musculus. The protocol: as §1, §2, §3
Another data set deals with SK-N-MC (Ewing). The data set is described as above. The class given is cell-based. The following applies: for pIC50: Homo sapiens; for cytotoxic activity (in words): SK-N-MC (Ewing) cells. The method, then: as §1, §2, §3
For another data set, the system named is MiaPaCa-2. Described as above. As to conditions: Homo sapiens. The class given is cell-based. The method, then:
as §1, §2, §3

The test system of data set [1] is RD human pediatric rhabdomyosarcoma model. The data set can be described thus: In vivo efficacy, human rhabdomyosarcoma xenografted in nude mice. As to conditions: RD xenograft, treated when tumor volume >80 mm^3, preliminary results. The method, then: In vivo cytotoxic efficacy was evaluated first on a model of human rhabdomyosarcoma xenografted in nude mice. The model used is the RD human pediatric rhabdomyosarcoma model. The cells were first amplified in culture and counted. 10·10^6 cells were injected subcutaneously in both flanks of each mouse. After graft uptake, when tumor volume reached >80 mm^3, the mice were treated with IFO-SQ or placebo.
A general note: A xenograft is tissue or cells of one species grown in another, often human tumour cells in immunodeficient mice.

A short description of data set [2]: Nanoparticle size in aqueous medium. The class given is physicochemical. The following applies: for average size of nanoparticles: aqueous suspension prepared by the technique of Fessi, spherical; for size of nanoparticles: self-assembly in an aqueous medium.
From the text: For example, the most recent and most promising application concerns the attachment of a squalene residue by this method by adding squalenol or squalene-thiol in the presence of BF3ET2O on the phosphoryl-iminium produced from 4-methoxy-MFI (Schemes 7 and 8). The compounds formed, SQ-4-O-MFI and SQ-4-S-MFI, have two interesting properties. The first is that they are pre-activated forms of MFI due to oxidation in position 4 that can release, in a slightly acidic aqueous medium, the alkylating mustard directly without metabolic activation. The second is that they are capable of self-assembly in an aqueous medium in the form of nanoparticles of a size of about 160 nm.
as §2

Another data set relates to UW 479 (Glioma). The data set can be described thus: In vitro cytotoxicity, MTS cell viability test, 72 h. The class given is cell-based, human. As to conditions: for pIC50: Homo sapiens; for cytotoxic activity (in words): UW 479 (Glioma) cells. The protocol: as §1, §2, §3
In another data set the test system is IGR-OV1 (Ovary). The description is as above. The class given is cell-based, human. The following applies: for pIC50: Homo sapiens; for cytotoxic activity (in words): IGR-OV1 (Ovary) cells. The protocol: as §1, §2, §3
Data set [3] is described as follows: Chemical stability of the 4-methoxy analogue. The data set is classed as physicochemical. The following applies: releases isophosphoramide mustard rapidly.
The conditions of data set [4]: compared with the active metabolite of IFO; cited from earlier work.

pIC50: −log10 of the molar value. Like-named read-outs stand apart in the source and are kept apart here.

As to `CC(C)=CCC/C(C)=C/CC/C(C)=C/CC/C=C(\C)CC/C=C(\C)CCCOC1CCOP(=O)(NCCCl)N1CCCl` (stereo not shown) [Ifosfamide SQ], the “in vitro cytotoxicity (in words)” value with several cell lines is recorded as “high in vitro cytotoxicity”. Also, the “cytotoxic activity (in words)” value with M109, in the data set with SK-N-MC (Ewing), in the data set on UW 479 (Glioma) and in the data set on IGR-OV1 (Ovary) was “not observed” each time. The pIC50 in the data set with M109 (M109, 72 h) was below 4.00; in the data set with MCF-7 MDR (MCF7, 72 h) it was 4.10; with KB 3.1 (KB 3-1, 72 h) it was 4.30; with MCF-7 (MCF7, 72 h), 4.36; in the data set with A549 (A549, 72 h) it was 4.49; with B16F10 (B16-F10, 72 h), 4.14. Besides, the pIC50 is below 4.00 in the data set on SK-N-MC (Ewing) (SK-N-MC, 72 h); 4.49 in the data set with MiaPaCa-2 (MIA PaCa-2, 72 h); below 4.00 in the data set on UW 479 (Glioma) (72 h); below 4.00 in the data set on IGR-OV1 (Ovary) (IGROV-1, 72 h). Further, in data set [1], the “tumor volume compared to mice treated with placebo” value is given as “significant decrease in tumor volume”. In data set [2], the “average size of nanoparticles” value was 182 nm. Besides, the size of nanoparticles entry in data set [2] was “about 160 nm”.

Turning to `CC(C)=CCC/C(C)=C/CC/C(C)=C/CC/C=C(\C)CC/C=C(\C)CCC(=O)NCCSC1CCOP(=O)(NCCCl)N1CCCl` (stereo not shown) [Ifosfamide-thio-SQ, (2-chloro-ethyl)-[3-(2-chloro-ethyl)-2-oxo-4-mercaptoethylamidosqualen-[1,3,2]oxazaphosphinan-2-yl]-amine], the “in vitro cytotoxicity (in words)” value in the data set with several cell lines was “high in vitro cytotoxicity”. Moreover, the “cytotoxic activity (in words)” value with M109, in the data set on SK-N-MC (Ewing), in the data set with UW 479 (Glioma) and in the data set with IGR-OV1 (Ovary) was “high cytotoxic activity” each time. Further, the pIC50 is 5.04 in the data set on M109 (M109, 72 h); 4.10 with MCF-7 MDR (MCF7, 72 h); 5.53 in the data set on KB 3.1 (KB 3-1, 72 h); 4.96 in the data set on MCF-7 (MCF7, 72 h); 5.28 in the data set with A549 (A549, 72 h); 4.77 with B16F10 (B16-F10, 72 h). Further, the pIC50 was 4.72 in the data set with SK-N-MC (Ewing) (SK-N-MC, 72 h); 5.36 with MiaPaCa-2 (MIA PaCa-2, 72 h); 4.19 with UW 479 (Glioma) (72 h); 4.09 in the data set on IGR-OV1 (Ovary) (IGROV-1, 72 h). Also, the “average size of nanoparticles” value in data set [2] amounted to 182 nm. The size of nanoparticles result in data set [2] is recorded as “about 160 nm”.

As to `O=P1(NCCCl)OCCCN1CCCl` (stereo not shown) [Ifosfamide, reference compound], the “in vitro cytotoxicity (in words)” value with several cell lines is “did not exhibit significant cytotoxicity”. Further, the pIC50 is below 4.00 in the data set on M109 (M109, 72 h incubation, nanoparticle suspension, MTS, read-out: IC50); below 4.00 with MCF-7 MDR (MCF7, MCF-7 MDR, 72 h incubation, nanoparticle suspension, MTS, read-out: IC50); below 4.00 in the data set on KB 3.1 (KB 3-1, KB 3.1, 72 h incubation, nanoparticle suspension, MTS, read-out: IC50); below 4.00 in the data set on MCF-7 (MCF7, MCF-7, 72 h incubation, nanoparticle suspension, MTS, read-out: IC50); below 4.00 in the data set on A549 (A549, 72 h incubation, nanoparticle suspension, MTS, read-out: IC50); below 4.00 in the data set with B16F10 (B16-F10, B16F10, 72 h incubation, nanoparticle suspension, MTS, read-out: IC50). Moreover, the pIC50 with SK-N-MC (Ewing) (SK-N-MC (Ewing), 72 h incubation, nanoparticle suspension, MTS, read-out: IC50) is below 4.00; with MiaPaCa-2 (MIA PaCa-2, MiaPaCa-2, 72 h incubation, nanoparticle suspension, MTS, read-out: IC50) it was below 4.00; in the data set with UW 479 (Glioma) (UW 479 (Glioma), 72 h incubation, nanoparticle suspension, MTS, read-out: IC50) it was below 4.00; in the data set with IGR-OV1 (Ovary) (IGROV-1, IGR-OV1 (Ovary), 72 h incubation, nanoparticle suspension, MTS, read-out: IC50) it was below 4.00.

Take tris-nor-squalenol [reference compound]: the “in vitro cytotoxicity (in words)” value in the data set on several cell lines was “did not exhibit significant cytotoxicity”.

For the molecule `COC1CCOP(=O)(NCCCl)N1CCCl` (stereo not shown) [4-MeO-IFO, 4-methoxy-ifosfamide], in data set [3], the chemical stability entry is “quite unstable”. The cytotoxic potency result in [4] was “equivalent to that of the active metabolite of IFO”.

The pIC50 is −log10 of the IC50, conventionally taken in molar units.
